Measured values taken from patent US11371019B2, “Efficient generation of human red blood cells via enriching peripheral blood erythroid progenitors” (Whitehead Institute for Biomedical Research, priority 2016, dated 2022).

Assays:
[1] = system: purified mouse TGFBR3^lo BFU-E cells; assay: total red cell production from purified BFU-E cells in SFELE medium; format: cell-based; details: culture system; FIG. 13
Method: FIG. 13. A chart showing the treatment of purified mouse TGFBR3^lo BFU-E cells with DMSO, DEX or TGFβ signaling inhibitor galunisertib. The cells were seeded in SFELE medium supplemented with the test agent.
(§1) For new drug discovery or drug repurposing for treating blood diseases, compounds of interest were added into cell culture after progenitor purification. The efficacy of drugs is evaluated based on total red blood cell production, numbers of erythroid progenitor BFU-E and CFU-E (quantified by colony forming assay) and/or level of fetal globin expression.

[2] = system: TGFBR3^lo mouse BFU-E cells; assay: colony forming assay for large BFU-E colony numbers; format: cell-based; details: culture system; FIG. 12
Method: FIG. 12. A chart showing an exemplary colony forming assays were conducted to determine large BFU-E colony numbers from 100 TGFBR3^lo mouse BFU-E cells cultured under the indicated conditions. Colony forming assays were performed at indicated time points.
as §1

Question: Which “total red cell production” value [1] does the source give for Cc1cccc(-c2nn3c(c2-c2ccnc4ccc(C(N)=O)cc24)CCC3)n1 [galunisertib] here?
Answer: increase

Question: What about the BFU-E numbers [2] of the same compound?
Answer: increase BFU-E numbers
